Results on eight compounds are retold here after US10196390B2, “TYK2 inhibitors and uses thereof” (Nimbus Lakshmi, Inc., priority 2014, dated 2019).

Experiment [1] addresses TYK2 (Homo sapiens (Human), UniProt P29597). The experiment is described as follows: Tyk2 activity inhibition assay (radioactive kinase assay / Caliper assay). Type of experiment: biochemical. In a few lines:
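Two formats were used. Caliper off-chip mobility shift read phosphorylated peptide 30 (3 uM) after 25 min at 28° C with 9.75 nM TYK2 and ATP at 16 uM or 1 mM. Radioactive assay: 10 μM 33P-ATP, 20 μM peptide, 120 min room temp, P81 filter counting.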

Experiment [2] deals with JAK2 (Homo sapiens (Human), UniProt O60674). In words: JAK2 activity inhibition assay (radioactive kinase assay / Caliper assay). Format: biochemical. To be noted: read-out: JAK2 Ki. In a few lines:
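Reaction ran 25 min at 28° C after adding peptide/ATP mix (10 mM MgCl2) to compound and enzyme in HEPES pH 7.5 buffer with Brij-35, Triton and EGTA. EDTA stop, then microfluidic off-chip separation quantified phosphorylated peptide.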

Experiment [3] deals with Tyk2-pSTAT4. In words: IL-12 induced pSTAT4 in human PBMC. Type of experiment: cell-based. The settings on record: read-out: Tyk2-pSTAT4 EC50. The method in brief:
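PBMC (200,000 cells/well) in serum-containing medium were preincubated with compound for 1 hr at 37 C, final DMSO 0.1%. Stimulation with 1.7 ng/mL IL-12 (final) for 30 minutes. pSTAT4 and total STAT4 were measured in lysates by MSD.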

Experiment [4] deals with JAK2-pSTAT5. The experiment is described as follows: GM-CSF induced pSTAT5 in human PBMC. Type of experiment: cell-based. The settings on record: read-out: JAK2-pSTAT5 EC50.
Experiment [5] deals with IL-12/IL-18 induced IFNγ. The experiment is described as follows: Acute mouse model for IL-12/IL-18 induced IFNγ in serum. Format: in vivo, C57BL/6 mice. The settings on record: in mice, efficacious dose of 30 mg/kg SC. The protocol:
C57BL/6 mice mice are dosed PO or SC with test compound at various doses or vehicle (n=9 or 10 per group) and then, 30 minutes later, injected IP with 10 ng IL-12 and 1 μg IL-18. Three hours after IL-12/IL-18 injection, mice were bled and serum isolated. Concentration of cytokines in serum were determined using CBA analysis.

Experiment [6] deals with IL-12 induced IFNγ. In words: Ex vivo mouse IL-12 induced IFNγ studies. Type of experiment: in vivo, C57/BL6 mice. The settings on record: ex vivo mouse model, doses of ≤10 mg/kg. The protocol:
C57/BL6 mice were given a single oral dose of either vehicle or different doses of compound at a volume of 10 mL/kg. 30 minutes to 1 hour after dosing, animals were euthanized and blood was collected via vena cava into sodium heparin blood collection tubes and inverted several times. Blood was then plated on anti-CD3 coated plates and stimulated with 2 ng/ml of mouse IL-12 in RPMI media for 24 hours at 37° C. in humidified incubator with 5% CO2. At the end of the incubation, blood was centrifuged at 260 g for 5 minutes to collect supernatant. IFNγ concentration in the supernatant was determined with mouse IFNγ MSD kit per manufacture's instruction (Meso Scale Discovery). At the time of the blood collection, plasma was collected for drug level analysis by LC-MS/MS.

[7] abbreviates: IL-12 induced pSTAT4, human PBMC.
[8] abbreviates: GM-CSF induced pSTAT5, human PBMC.

SMILES strings stand for the structures. Like-named read-outs stand apart in the source and are kept apart here.

Chain of TYK2 (P29597 whole entry): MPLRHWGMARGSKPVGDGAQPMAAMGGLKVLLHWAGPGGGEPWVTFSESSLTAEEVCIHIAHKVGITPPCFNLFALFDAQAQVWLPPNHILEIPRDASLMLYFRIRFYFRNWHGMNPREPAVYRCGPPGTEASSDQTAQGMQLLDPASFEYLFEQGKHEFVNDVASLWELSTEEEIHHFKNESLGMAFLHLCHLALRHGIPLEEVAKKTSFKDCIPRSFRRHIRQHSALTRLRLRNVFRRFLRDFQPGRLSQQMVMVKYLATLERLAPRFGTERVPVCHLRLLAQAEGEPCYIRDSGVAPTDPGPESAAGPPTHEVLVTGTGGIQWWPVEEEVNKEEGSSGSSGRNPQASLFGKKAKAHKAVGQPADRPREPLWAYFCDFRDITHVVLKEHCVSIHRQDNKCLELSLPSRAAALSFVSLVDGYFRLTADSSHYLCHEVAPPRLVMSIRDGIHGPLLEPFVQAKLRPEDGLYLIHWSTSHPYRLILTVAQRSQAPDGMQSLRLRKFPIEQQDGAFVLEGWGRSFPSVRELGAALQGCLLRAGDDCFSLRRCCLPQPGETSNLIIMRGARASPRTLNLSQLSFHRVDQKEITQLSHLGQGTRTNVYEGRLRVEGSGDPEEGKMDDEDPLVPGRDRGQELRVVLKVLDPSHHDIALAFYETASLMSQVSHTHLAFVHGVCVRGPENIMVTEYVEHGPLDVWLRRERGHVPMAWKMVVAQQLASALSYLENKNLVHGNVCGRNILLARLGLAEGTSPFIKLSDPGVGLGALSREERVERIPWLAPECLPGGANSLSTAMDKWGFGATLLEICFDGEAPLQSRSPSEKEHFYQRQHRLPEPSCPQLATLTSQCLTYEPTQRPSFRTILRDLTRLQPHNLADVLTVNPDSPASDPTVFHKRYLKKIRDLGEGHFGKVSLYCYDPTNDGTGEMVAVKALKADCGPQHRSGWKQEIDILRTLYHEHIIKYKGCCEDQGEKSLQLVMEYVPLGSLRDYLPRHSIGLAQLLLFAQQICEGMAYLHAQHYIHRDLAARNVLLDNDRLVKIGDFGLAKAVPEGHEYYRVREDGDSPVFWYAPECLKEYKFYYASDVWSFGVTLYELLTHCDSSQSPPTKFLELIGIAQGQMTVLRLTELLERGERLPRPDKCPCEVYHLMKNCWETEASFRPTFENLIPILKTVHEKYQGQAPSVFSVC
Chain of JAK2 (O60674 whole entry): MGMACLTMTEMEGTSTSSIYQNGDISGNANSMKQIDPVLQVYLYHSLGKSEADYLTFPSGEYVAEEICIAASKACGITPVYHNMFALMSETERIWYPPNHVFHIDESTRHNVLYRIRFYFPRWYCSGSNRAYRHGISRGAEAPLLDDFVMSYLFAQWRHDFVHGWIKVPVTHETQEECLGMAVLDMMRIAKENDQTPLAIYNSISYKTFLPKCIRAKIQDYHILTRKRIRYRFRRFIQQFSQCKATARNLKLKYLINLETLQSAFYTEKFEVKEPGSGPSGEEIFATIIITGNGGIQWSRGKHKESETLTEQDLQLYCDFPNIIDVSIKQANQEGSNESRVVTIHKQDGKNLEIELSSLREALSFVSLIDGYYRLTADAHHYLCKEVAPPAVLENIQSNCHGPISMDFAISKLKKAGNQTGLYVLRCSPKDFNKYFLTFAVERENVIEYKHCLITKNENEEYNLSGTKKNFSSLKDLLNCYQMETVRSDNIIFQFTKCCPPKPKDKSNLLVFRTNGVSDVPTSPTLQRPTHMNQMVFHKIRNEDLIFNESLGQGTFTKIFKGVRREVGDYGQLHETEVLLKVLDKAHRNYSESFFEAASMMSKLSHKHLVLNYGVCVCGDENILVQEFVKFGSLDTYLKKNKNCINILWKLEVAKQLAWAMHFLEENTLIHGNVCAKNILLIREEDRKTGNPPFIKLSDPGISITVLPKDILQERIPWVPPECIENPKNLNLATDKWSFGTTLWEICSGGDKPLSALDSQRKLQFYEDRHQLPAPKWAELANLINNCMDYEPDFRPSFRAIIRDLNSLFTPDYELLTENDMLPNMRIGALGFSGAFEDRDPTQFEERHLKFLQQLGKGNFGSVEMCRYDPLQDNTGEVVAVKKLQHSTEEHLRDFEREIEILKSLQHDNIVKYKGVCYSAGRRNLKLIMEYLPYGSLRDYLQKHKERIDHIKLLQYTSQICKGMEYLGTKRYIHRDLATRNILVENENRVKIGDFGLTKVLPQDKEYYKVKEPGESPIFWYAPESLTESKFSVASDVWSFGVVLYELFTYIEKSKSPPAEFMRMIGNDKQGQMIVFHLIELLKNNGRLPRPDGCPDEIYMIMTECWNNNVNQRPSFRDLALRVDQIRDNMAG

One may read the Ki as the equilibrium dissociation constant of an inhibitor or competing ligand from its target. As usually defined, the EC50 is the concentration giving half of the maximal effect. Turning to `CCNC(=O)Cc1ccc(Nc2nc(-c3c(F)cccc3F)nc3c2C(=O)NC3)cc1` [Compound I-80, 2-(4-((2-(2,6-difluorophenyl)-5-oxo-6,7-dihydro-5H-pyrrolo[3,4-d]pyrimidin-4-yl)amino)phenyl)-N-ethylacetamide], the Ki in experiment [1] was below 10 nM; in experiment [2] it was 100 to 1000 nM. Also, the EC50 was below 2000 nM in experiment [3] (Homo sapiens, PBMC) and above 20000 nM in experiment [4] (Homo sapiens, PBMC). Moreover, the “IL-12/IL-18 induced IFNγ production in vivo” value in experiment [5] is listed as “inhibited”.

Take `CCNC(=O)c1ccc(Nc2cc(-c3c(F)cccc3F)nc3c2C(=O)NC3)nc1` [Compound I-136, 6-((2-(2,6-difluorophenyl)-5-oxo-6,7-dihydro-5H-pyrrolo[3,4-b]pyridin-4-yl)amino)-N-ethylnicotinamide]: the results for the Ki in experiment [1] and in experiment [2] were below 10 nM and 10 to 100 nM, respectively. Moreover, the 50% effective concentration (EC50) is below 2000 nM in experiment [3] (Homo sapiens, PBMC) and below 2000 nM in experiment [4] (Homo sapiens, PBMC). Also, the “IL-12 induced IFNγ production” value in experiment [6] is recorded as “significantly inhibit”.

In the case of `CC(C)(C)NC(=O)c1ccc(Nc2cc(-c3c(F)cccc3F)nc3c2C(=O)NC3)nc1` [Compound I-165, N-(tert-butyl)-6-((2-(2,6-difluorophenyl)-5-oxo-6,7-dihydro-5H-pyrrolo[3,4-b]pyridin-4-yl)amino)nicotinamide], the Ki in experiment [1] is below 10 nM; in experiment [2], 10 to 100 nM. The results for the EC50 in experiment [3] (setting [7]) and in experiment [4] (setting [8]) were below 2000 nM and 2000 to 20000 nM, respectively. The “IL-12 induced IFNγ production” value in experiment [6] was “significantly inhibit”.

Take `O=C1NCc2nc(-c3c(F)cccc3F)cc(Nc3ccc(C(=O)N4CCOCC4)cc3)c21` [Compound I-231, 2-(2,6-difluorophenyl)-4-((4-(morpholine-4-carbonyl)-phenyl)amino)-6,7-dihydro-5H-pyrrolo[3,4-b]pyridin-5-one]: the figures for the Ki in experiment [1] and in experiment [2] were below 10 nM and 10 to 100 nM, respectively. Besides, the half-maximal effective concentration (EC50) is below 2000 nM in experiment [3] (Homo sapiens, PBMC) and 2000 to 20000 nM in experiment [4] (setting [8]).

In the case of `CC(C)NC(=O)c1ccc(Nc2cc(-c3c(F)cccc3F)nc3c2C(=O)NC3)cc1` [Compound I-232, 4-((2-(2,6-difluorophenyl)-5-oxo-6,7-dihydro-5H-pyrrolo[3,4-b]pyridin-4-yl)amino)-N-isopropylbenzamide], the Ki in experiment [1] was below 10 nM; in experiment [2] it was 10 to 100 nM. The EC50 in experiment [3] (Homo sapiens, PBMC) was below 2000 nM; in experiment [4] (Homo sapiens, PBMC), 2000 to 20000 nM.

Turning to `CC(=O)Nc1ccc(Nc2cc(-c3c(F)cccc3F)nc3c2C(=O)NC3)nc1` [Compound I-237, N-(6-((2-(2,6-difluorophenyl)-5-oxo-6,7-dihydro-5H-pyrrolo[3,4-b]pyridin-4-yl)amino)pyridin-3-yl)acetamide], the results for the Ki in experiment [1] and in experiment [2] were below 10 nM and 10 to 100 nM, respectively. Moreover, the results for the EC50 in experiment [3] (setting [7]) and in experiment [4] (setting [8]) were below 2000 nM and above 20000 nM, respectively.

`C[C@@H]1COC[C@@H](C)N1c1ccc(Nc2cc(-c3c(F)cccc3F)nc3c2C(=O)NC3)nc1` [Compound I-263, 2-(2,6-difluorophenyl)-4-((5-((3R,5R)-3,5-dimethylmorpholino)pyridin-2-yl)amino)-6,7-dihydro-5H-pyrrolo[3,4-b]pyridin-5-one]: the Ki in experiment [1] and in experiment [2] was below 10 nM throughout. In addition, the half-maximal effective concentration (EC50) in experiment [3] (setting [7]) and in experiment [4] (setting [8]) was below 2000 nM each time.

For `O=C1NCc2nc(-c3c(F)cccc3F)cc(Nc3ccc(NC4CCC4)cn3)c21` [Compound I-276, 4-((5-(cyclobutylamino)pyridin-2-yl)amino)-2-(2,6-difluoro-phenyl)-6,7-dihydro-5H-pyrrolo[3,4-b]pyridin-5-one], the Ki in experiment [1] was below 10 nM; in experiment [2], 10 to 100 nM. Moreover, the half-maximal effective concentration (EC50) in experiment [3] (setting [7]) and in experiment [4] (setting [8]) was below 2000 nM throughout.
